Common to all, as to test: relative viability (nuclei count vs DMSO), 5 days (fraction); higher = more cells survive
Compound in the assay “Bortezomib + Decitabine”: CC(C)C[C@H](NC(=O)[C@H](Cc1ccccc1)NC(=O)c1cnccn1)B(O)O [Bortezomib] + Nc1ncn([C@H]2C[C@H](O)[C@@H](CO)O2)c(=O)n1 [Decitabine] (partner 2 µM)
In short, it runs like this:
(§1)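 Cells from lung cancer lines were seeded into 1536-well plates and, one day later, dosed by pin tool. Treatments were either a single drug or a fixed dose of an anchor drug with five library-drug doses (not always all listed) in √10 steps. After 5 days, nuclei were stained in a one-step fixation (final 0.05% Triton X-100, 1% formaldehyde, 1 ug/ml Hoechst) and counted on 4× images, and relative viability is the treated-to-vehicle nuclei ratio, as the median of duplicate plates.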

Compound in the assay “Bortezomib + Vorinostat”: CC(C)C[C@H](NC(=O)[C@H](Cc1ccccc1)NC(=O)c1cnccn1)B(O)O [Bortezomib] + O=C(CCCCCCC(=O)Nc1ccccc1)NO [Vorinostat] (partner 1 µM)
In short, it runs like this:
as §1

Compound in assay [1]: CC1=CC(=NN1)NC2=CC(=NC(=N2)/C=C/C3=CC=CC=C3)N4CCN(CC4)C + Cc1nc(NC(=O)N2CCC[C@H]2C(N)=O)sc1-c1ccnc(C(C)(C)C(F)(F)F)c1 [Alpelisib] (partner 2 µM)
An outline of the steps: as §1

Compound in the assay “Obatoclax + Bortezomib”: COC1=CC(c2cc3ccccc3[nH]2)=N/C1=C\c1[nH]c(C)cc1C [Obatoclax] + CC(C)C[C@H](NC(=O)[C@H](Cc1ccccc1)NC(=O)c1cnccn1)B(O)O [Bortezomib] (partner 0.002 µM)
In short, it runs like this: as §1

The text below walks through data of the supplement of paper PMC10307832.

Turning to NCI-H3122, the relative viability worked out at 0.439 with Bortezomib + Decitabine (first compound 0.0002 µM); 0.438 with Bortezomib + Decitabine (first compound 0.000632 µM); 0.403 with Bortezomib + Decitabine (first compound 0.002 µM); 0.34 with Bortezomib + Decitabine (first compound 0.006325 µM); 0.129 with Bortezomib + Decitabine (first compound 0.02 µM); 0.993 with Bortezomib + Vorinostat (first compound 0.0002 µM). Further, the relative viability with Bortezomib + Vorinostat (first compound 0.000632 µM) worked out at 1.07; in the assay with Bortezomib + Vorinostat (first compound 0.002 µM), 1.46; with Bortezomib + Vorinostat (first compound 0.006325 µM), 0.515; in the assay with Bortezomib + Vorinostat (first compound 0.02 µM), 0.108; in assay [1] (first compound 0.08 µM), 0.769; in assay [1] (first compound 0.253 µM), 0.799. Also, the relative viability turned out to be 0.902 in assay [1] (first compound 0.8 µM); 0.621 in assay [1] (first compound 2.53 µM); 0.257 in assay [1] (first compound 8 µM); 0.966 in the assay with Obatoclax + Bortezomib (first compound 0.01 µM); 1.01 in the assay with Obatoclax + Bortezomib (first compound 0.03162 µM); 1.02 with Obatoclax + Bortezomib (first compound 0.1 µM). The relative viability with Obatoclax + Bortezomib (first compound 0.3162 µM) worked out at 1.03; with Obatoclax + Bortezomib (first compound 1 µM), 1.06.
In the case of PC-3 [JPC-3], the relative viability with Bortezomib + Decitabine (first compound 0.0002 µM) turned out to be 0.815; with Bortezomib + Decitabine (first compound 0.000632 µM) it was 0.84; with Bortezomib + Decitabine (first compound 0.002 µM) it was 0.428; with Bortezomib + Decitabine (first compound 0.006325 µM), 0.301; in the assay with Bortezomib + Decitabine (first compound 0.02 µM), 0.237; with Bortezomib + Vorinostat (first compound 0.0002 µM), 0.675. The relative viability was determined as 0.82 with Bortezomib + Vorinostat (first compound 0.000632 µM); 0.444 with Bortezomib + Vorinostat (first compound 0.002 µM); 0.22 with Bortezomib + Vorinostat (first compound 0.006325 µM); 0.203 with Bortezomib + Vorinostat (first compound 0.02 µM); 1.08 in assay [1] (first compound 0.08 µM); 1.15 in assay [1] (first compound 0.253 µM). Further, the relative viability in assay [1] (first compound 0.8 µM) stood at 1.04; in assay [1] (first compound 2.53 µM), 1; in assay [1] (first compound 8 µM), 0.78; with Obatoclax + Bortezomib (first compound 0.01 µM), 0.905; with Obatoclax + Bortezomib (first compound 0.03162 µM) it was 0.789; with Obatoclax + Bortezomib (first compound 0.1 µM), 0.815. The relative viability came to 0.827 in the assay with Obatoclax + Bortezomib (first compound 0.3162 µM) and 0.977 with Obatoclax + Bortezomib (first compound 1 µM).
In the case of PC-14, the relative viability with Bortezomib + Decitabine (first compound 0.0002 µM) turned out to be 0.254; with Bortezomib + Decitabine (first compound 0.000632 µM) it was 0.234; in the assay with Bortezomib + Decitabine (first compound 0.002 µM), 0.195; in the assay with Bortezomib + Decitabine (first compound 0.006325 µM) it was 0.0599; with Bortezomib + Decitabine (first compound 0.02 µM), 0.0702; in the assay with Bortezomib + Vorinostat (first compound 0.0002 µM), 0.778. The relative viability was 0.717 with Bortezomib + Vorinostat (first compound 0.000632 µM); 0.365 in the assay with Bortezomib + Vorinostat (first compound 0.002 µM); 0.0298 with Bortezomib + Vorinostat (first compound 0.006325 µM); 0.0377 with Bortezomib + Vorinostat (first compound 0.02 µM); 0.915 in assay [1] (first compound 0.08 µM); 0.85 in assay [1] (first compound 0.253 µM). The relative viability in assay [1] (first compound 0.8 µM) was found to be 0.322; in assay [1] (first compound 2.53 µM) it was 0.749; in assay [1] (first compound 8 µM), 0.124; in the assay with Obatoclax + Bortezomib (first compound 0.01 µM), 0.782; with Obatoclax + Bortezomib (first compound 0.03162 µM), 0.947; in the assay with Obatoclax + Bortezomib (first compound 0.1 µM), 0.777. Besides, the relative viability came to 0.798 with Obatoclax + Bortezomib (first compound 0.3162 µM) and 0.283 with Obatoclax + Bortezomib (first compound 1 µM).
On to RERF-LC-KJ, for which the relative viability with Bortezomib + Decitabine (first compound 0.0002 µM) came to 0.663; with Bortezomib + Decitabine (first compound 0.000632 µM), 0.707; with Bortezomib + Decitabine (first compound 0.002 µM), 0.531; with Bortezomib + Decitabine (first compound 0.006325 µM) it was 0.226; in the assay with Bortezomib + Decitabine (first compound 0.02 µM), 0.219; in the assay with Bortezomib + Vorinostat (first compound 0.0002 µM), 0.661. In addition, the relative viability with Bortezomib + Vorinostat (first compound 0.000632 µM) is 0.726; with Bortezomib + Vorinostat (first compound 0.002 µM), 0.624; with Bortezomib + Vorinostat (first compound 0.006325 µM), 0.463; with Bortezomib + Vorinostat (first compound 0.02 µM), 0.219; in assay [1] (first compound 0.08 µM) it was 0.788; in assay [1] (first compound 0.253 µM) it was 0.978. Moreover, the relative viability in assay [1] (first compound 0.8 µM) was determined as 0.828; in assay [1] (first compound 2.53 µM) it was 0.573; in assay [1] (first compound 8 µM), 0.314; in the assay with Obatoclax + Bortezomib (first compound 0.01 µM), 1.04; in the assay with Obatoclax + Bortezomib (first compound 0.03162 µM), 1.07; with Obatoclax + Bortezomib (first compound 0.1 µM), 1.09. In addition, the relative viability with Obatoclax + Bortezomib (first compound 0.3162 µM) is 0.851; with Obatoclax + Bortezomib (first compound 1 µM), 0.765.
As to SK-LU-1, the relative viability with Bortezomib + Decitabine (first compound 0.0002 µM) was found to be 0.499; in the assay with Bortezomib + Decitabine (first compound 0.000632 µM), 0.644; with Bortezomib + Decitabine (first compound 0.002 µM) it was 0.533; in the assay with Bortezomib + Decitabine (first compound 0.006325 µM) it was 0.245; in the assay with Bortezomib + Decitabine (first compound 0.02 µM) it was 0.174; with Bortezomib + Vorinostat (first compound 0.0002 µM), 0.733. Further, the relative viability with Bortezomib + Vorinostat (first compound 0.000632 µM) is 0.84; in the assay with Bortezomib + Vorinostat (first compound 0.002 µM), 0.314; in the assay with Bortezomib + Vorinostat (first compound 0.006325 µM), 0.178; with Bortezomib + Vorinostat (first compound 0.02 µM) it was 0.186; in assay [1] (first compound 0.08 µM), 1.05; in assay [1] (first compound 0.253 µM), 0.972. Moreover, the relative viability in assay [1] (first compound 0.8 µM) was 0.636; in assay [1] (first compound 2.53 µM), 0.223; in assay [1] (first compound 8 µM) it was 0.113; with Obatoclax + Bortezomib (first compound 0.01 µM), 1.15; with Obatoclax + Bortezomib (first compound 0.03162 µM) it was 1.05; with Obatoclax + Bortezomib (first compound 0.1 µM), 0.44. For the same cell line, the relative viability turned out to be 1.05 with Obatoclax + Bortezomib (first compound 0.3162 µM) and 0.75 in the assay with Obatoclax + Bortezomib (first compound 1 µM).
For the cell line SW 1573, the relative viability in the assay with Bortezomib + Decitabine (first compound 0.0002 µM) came out at 0.366; with Bortezomib + Decitabine (first compound 0.000632 µM), 0.573; in the assay with Bortezomib + Decitabine (first compound 0.002 µM), 0.229; with Bortezomib + Decitabine (first compound 0.006325 µM) it was 0.0617; in the assay with Bortezomib + Decitabine (first compound 0.02 µM), 0.0363; in the assay with Bortezomib + Vorinostat (first compound 0.0002 µM) it was 0.676. Also, the relative viability is 1.02 in the assay with Bortezomib + Vorinostat (first compound 0.000632 µM); 0.313 with Bortezomib + Vorinostat (first compound 0.002 µM); 0.0435 with Bortezomib + Vorinostat (first compound 0.006325 µM); 0.0242 with Bortezomib + Vorinostat (first compound 0.02 µM); 0.886 in assay [1] (first compound 0.08 µM); 1.07 in assay [1] (first compound 0.253 µM). Besides, the relative viability in assay [1] (first compound 0.8 µM) stood at 0.785; in assay [1] (first compound 2.53 µM), 0.499; in assay [1] (first compound 8 µM), 0.124; with Obatoclax + Bortezomib (first compound 0.01 µM), 1.04; with Obatoclax + Bortezomib (first compound 0.03162 µM), 0.998; with Obatoclax + Bortezomib (first compound 0.1 µM) it was 0.925. Besides, the relative viability in the assay with Obatoclax + Bortezomib (first compound 0.3162 µM) turned out to be 0.895; in the assay with Obatoclax + Bortezomib (first compound 1 µM) it was 0.476.
On to UMC-11, for which the relative viability in the assay with Bortezomib + Decitabine (first compound 0.0002 µM) worked out at 0.628; with Bortezomib + Decitabine (first compound 0.000632 µM), 0.713; with Bortezomib + Decitabine (first compound 0.002 µM), 0.483; in the assay with Bortezomib + Decitabine (first compound 0.006325 µM) it was 0.326; with Bortezomib + Decitabine (first compound 0.02 µM), 0.203; with Bortezomib + Vorinostat (first compound 0.0002 µM), 0.365. In addition, the relative viability in the assay with Bortezomib + Vorinostat (first compound 0.000632 µM) was determined as 0.399; with Bortezomib + Vorinostat (first compound 0.002 µM), 0.41; in the assay with Bortezomib + Vorinostat (first compound 0.006325 µM), 0.112; with Bortezomib + Vorinostat (first compound 0.02 µM), 0.0837; in assay [1] (first compound 0.08 µM), 0.948; in assay [1] (first compound 0.253 µM) it was 0.963. Also, the relative viability is 0.404 in assay [1] (first compound 0.8 µM); 0.13 in assay [1] (first compound 2.53 µM); 0.103 in assay [1] (first compound 8 µM); 0.645 with Obatoclax + Bortezomib (first compound 0.01 µM); 0.428 in the assay with Obatoclax + Bortezomib (first compound 0.03162 µM); 0.689 with Obatoclax + Bortezomib (first compound 0.1 µM). Moreover, the relative viability turned out to be 0.743 in the assay with Obatoclax + Bortezomib (first compound 0.3162 µM) and 0.265 in the assay with Obatoclax + Bortezomib (first compound 1 µM).
